A short description of data set [1]: CAT-like activity: O2 pressure from hydrogen peroxide dismutation. Particulars: [catalyst] = 200 μM, [H2O2] = 20–30 mM in BBS 50 mM, pH = 7.8. In kind it is biochemical. Set-up: Rmax: unit not given here. On the procedure: The studied catalase-like activity of the complexes was evaluated by measuring the pressure resulting from the oxygen produced during the dismutation of the hydrogen peroxide. For this analysis, a borate-based buffer system (BBS 50 mM, pH 7.8) was utilized to avoid the competitive binding of phosphate anions.
Catalytic measurement assays were conducted using a Varian Cary 100 spectrophotometer with a 3 mL quartz cuvette (1 cm path length) for evaluating SOD-like activity. For the assessment of peroxidase-mimicking activity, a Varian Cary 50 instrument and identical cuvettes were utilized. To monitor the CAT-like activity, a 25 mL vial, equipped with a septum for solution injection, was used as a reactor and connected to a pressure transducer. […]
To monitor the CAT-like activity, a 25 mL vial was used as a reactor, connected to a pressure transducer and
a septum for the injection.

Data set [2] can be described thus: UV–Vis monitoring of complex stability during H2O2 dismutation. Particulars: complex 200 μM, H2O2 10 mM in BBS 50 mM pH 7.8. In kind it is physicochemical. From the text:
The reaction progression was monitored by UV–Vis to gather insights into the stability of the complexes during H2O2 dismutation (Figures S45–S48 in Supplementary Materials). Analyzing the spectra recorded for the systems derived from HL1 and HL5, it is possible to observe changes in the absorption bands. In the case of the mononuclear species containing HL1, the alteration in the absorption band takes place over a comparatively extended period, in agreement with the occurrence of the delay period previously noted. The intensity associated with the π→π * electronic transition progressively diminishes, coinciding with a rise in molecular oxygen generation. Such a trend implies structural reconfiguration within the coordination environment of the complex, which appears necessary to initiate the catalytic event. On the other hand, the characteristic absorption feature vanishes after 4 h as a result of the formation of radical species. The UV–Vis profile of the complex Cu(HL5)(ClO4)2 (Figure S46) undergoes a faster modification.
Figure S46: UV-Vis spectra of Cu(HL5)(ClO4)2 at time 0 (red) and after 7 h (light red). The colours variation represents an increment of 5 min from t=0 to t=15 min, of 15 min from t=15 to t= 45 min and 45 min from t= 45 to t=360 min.
Conditions: [Cu(HL5)(ClO4)2]= 200 uM, [H2O2]=10mM in BBS 50mM pH=7.8. Zoom: temporal trends compared to O2 (red) and Abs (light red) on the maximum absorption at 294 nm.
Figure S47: UV-Vis spectra of Cu2(L1)2(ClO4)2 at time 0 (blue) and after 24 hours (light blue). Every change of colors represents a temporal increase of 90 minutes. Conditions: [Cu2(L1)2(ClO4)2] = 200 µM, [H2O2] = 10 mM in BBS 50 mM, pH = 7.8. Zoom: temporal trends compared to O2 (blue) and Abs (light blue) on the maximum absorption at 288 nm.
Figure S48: UV-Vis spectra of Cu2(L5)2(ClO4)2 at time 0 (dark green) and after 24 hours (light green). Every change of colours represents a temporal increase of 90 minutes. Conditions: [Cu2(L5)2(ClO4)2] = 200 µM, [H2O2] = 10 mM in BBS 50 mM, pH = 7.8. […]

A short description of data set [3]: SOD activity, indirect cytochrome C (CytC) assay, xanthine/xanthine oxidase. The data set is classed as biochemical. Particulars: [CytC] = 10 μM, pH = 7.8; for IC50: CytC assay, [xanthine] = 40 μM, [xanthine oxidase] = 0.0053 U/mL, phosphate buffer 50 mM; for Log (kcat): kcat(O2•−)=kCytC·[CytC]/IC50, kCytC=2.6×10^5 M^−1s^−1. On the procedure:
To reduce uncertainty about the actual active species involved in the reaction, the catalytic investigations were made with the isolated species. The ability to catalyze superoxide dismutation was assessed using the indirect cytochrome C-based assay originally introduced by McCord and Fridovich. In this kind of test, the presence of a catalyst with SOD activity, acting as a scavenger for O2^•− and generated via a xanthine/xanthine oxidase system, prevents the electron transfer to cytochrome C (Cyt C) to form […].
Catalytic measurement assays were conducted using a Varian Cary 100 spectrophotometer with a 3 mL quartz cuvette (1 cm path length) for evaluating SOD-like activity. For the assessment of peroxidase-mimicking activity, a Varian Cary 50 instrument and identical cuvettes were utilized. To monitor the CAT-like activity, a 25 mL vial, equipped with a septum for solution injection, was used as a reactor and connected to a pressure transducer.

The nature of data set [4]: Peroxidase activity: morin oxidation with H2O2. The data set is classed as biochemical. Particulars: after 16 h with H2O2; [Morin] = 0.16 mM, [Catalyst] = 1.6 μM, [H2O2] = 0.01 M, PBS 50 mM, pH 7.8. On the procedure:
Since initial antioxidant evaluations were conducted without incorporating oxidizable substrates, it is therefore essential to assess the behavior of the complexes in the presence of organic substrates. To this aim, we employed two distinct categories of model substrate: morin and o-phenylenediamine (OPD). We evaluated the spectral changes during morin oxidation, i.e., absorbance decreases for the substrate (Figure 7 and Figures S50–S53 in the Supporting Materials) and increase for the 2,3-diaminephenazine (DAP), the product of the oxidative degradation of the OPD (Figures S55–S58 in the Supporting Materials).
Figure 7 Residual absorbance of morin at the maximum absorption (390 nm) after reaction of the complexes with H2O2 for 16 h. [Morin] = 0.16 mM, [Catalyst] = 1.6 μM, [H2O2] = 0.01 M, PBS buffer (50 mM), pH 7.8.
Peroxidase activity was evaluated via UV-Vis spectroscopy by monitoring the time-dependent absorbance changes of oxidized substrates in the presence of H₂O₂ and copper complexes. Two substrates were used: morin and o-phenylenediamine (OPD).
For morin, the oxidative degradation (Figure S49) was evidenced by a decrease in absorbance at 390 nm. […]
The reaction kinetics were monitored over 18 hours with spectra collected every 20 minutes (Figures S50–S53). […]
Figure S50: Absorbance variation of the morine, with the complex Cu(HL1)(ClO 4)2. […]

Data set [5] can be described thus: Cyclic voltammetry of the Cu(II)/Cu(I) couple. Particulars: for ΔE: Epc − Epa; for ΔE / │ia/ic│ / E1/2: PBS pH 7.8; for │ia/ic│: peak current ratio; for E1/2 / Epa / Epc: vs NHE; for E1/2: E1/2=(Epc+Epa)/2; for Epa / Epc: PBS 10 mM, 150 mM NaCl, pH 7.8, 0.25 mM complex. In kind it is physicochemical. On the procedure: To assess this behavior, the corresponding redox potentials were measured by cyclic voltammetry (CV), offering key insights into the electron-transfer properties of the complexes. The metal ion redox potential should ideally lie between the potential for oxidation (−0.16 V vs. NHE) (Equation (1)) and reduction (0.89 V vs. NHE) of superoxide radicals (Equation (2)).(1) O2∙−→O2+e^− (2) O2∙−+e^−+H^+→H2O2
The key electrochemical parameters extracted from the cyclic voltammograms are summarized in Table 3, highlighting a similar redox behavior of the complexes with both ligands. However, the nature of the anion appears to influence the properties of the mononuclear species formed in situ, compared with the isolated complexes.
Cyclic voltammetry experiments were carried out using a BAS Cell C3 EC-epsilon potentiostat equipped with a conventional three-electrode system consisting of a glassy carbon working electrode (3 mm diameter, geometric surface 7 mm^2), a platinum wire counter electrode (CE), and a silver/silver chloride reference electrode (Ag/AgCl, 3 M KCl). Voltammograms were recorded in phosphate-buffered saline (PBS; 10 mM, 150 mM NaCl, pH 7.8) containing 0.25 mM of the complex. The measurements were performed within a potential window from −600 mV to +400 mV, employing various scan rates (50 mV/s, 100 mV/s, 200 mV/s, 400 mV/s, and 800 mV/s).

Marks after values point to notes of the source that are not given here.

In general, IC50 refers to the point on the concentration scale where inhibition reaches its midpoint.

In the case of `COc1cccc(CN(Cc2ccccn2)Cc2ccccn2)c1O.[Cu+2].[O-][Cl+3]([O-])([O-])[O-].[O-][Cl+3]([O-])([O-])[O-]` [Cu(HL5)(ClO4)2], the “Time (to maximum O2 production)” value in data set [1] is 1300 min. The same molecule displayed an O2 generated in data set [1] (triplicate, ±10% error) of 9.8 mmol/L. Also, the “time in which the π→π* absorbance feature fades / changes” value in data set [2] is listed as “approximately 60 min”. Moreover, in data set [3], it took 1040 nM to reach half-maximal inhibition (IC50) and the “Log (kcat)” value was 6.41 ^h. Further, in data set [4], the “residual absorbance of morin (390 nm)” value was determined as 21%. Moreover, in data set [5], the ΔE is on record as −0.106 V, the “│ia/ic│” value is 0.52, the E1/2 was −0.149 V and the Epa is listed as −0.096 V. The Epc in data set [5] was −0.202 V.

Regarding `COc1cccc(CN(Cc2ccccn2)Cc2ccccn2)c1[O-].COc1cccc(CN(Cc2ccccn2)Cc2ccccn2)c1[O-].[Cu+2].[Cu+2].[O-][Cl+3]([O-])([O-])[O-].[O-][Cl+3]([O-])([O-])[O-]` [Cu2(L5)2(ClO4)2], the “Time (to maximum O2 production)” value in data set [1] came out at 950 min. For the same molecule, in data set [1] (triplicate, ±10% error), the O2 generated is on record as 7.7 mmol/L and the Rmax turned out to be 0.36. The “time in which the π→π* absorbance feature fades / changes” value in data set [2] is at most 90 min. In addition, in data set [3], inhibition was half-maximal at 1280 nM (IC50) and the “Log (kcat)” value is 6.31 ^h. Besides, in data set [4], the “residual absorbance of morin (390 nm)” value is 40%. In addition, in data set [5], the ΔE is listed as −0.081 V, the “│ia/ic│” value is 0.90, the E1/2 was −0.179 V and the Epa was −0.138 V. In data set [5], this molecule returned an Epc of −0.219 V.

The values above are taken from article PMC12388300, “The Chelating Abilities of Tertiary Amines with N-O-Donors Towards Cu(II) Ions and the Catalytic Properties of the Resulting Complexes” (Molecules, 2025).
